Assay results as given in article PMC6152672, “Cholinesterase Inhibitory Activities of Adamantyl-Based Derivatives and Their Molecular Docking Studies” (Molecules : A Journal of Synthetic Chemistry and Natural …, 2017).
Where two headings read alike, the source gives them in different places.

Legend:
[1] = molecular target: T1, Electric eel acetylcholinesterase (AChE, EC 3.1.1.7) (Electrophorus electricus, UniProt O42275); assay: biochemical; assay type: biochemical; details: for AChE inhibition effect (in words): 2a, 2r: up to a concentration of 1000 µM
T1 construct: purchased Sigma-Aldrich (St. Louis, MO, USA)
Source text: (§1) Electric eel acetylcholinesterase (AChE, EC 3.1.1.7), equine serum butyrylcholinesterase (BChE, EC 3.1.1.8), 5,5’-dithio-bis-2-nitrobenzoic acid (DTNB), and sodium phosphate dibasic (Na2HPO4) were purchased from Sigma-Aldrich (St. Louis, MO, USA). S-butyrylthiocholine chloride (BTCC) from Sigma-Aldrich (Buchs, Switzerland), acetylthiocholine iodide (ATCI) from Sigma-Aldrich (Dorset, UK) and sodium phosphate monobasic (NaH2PO4) from Sigma-Aldrich (Munich, Germany) were purchased. […] The reagents and solvents for the synthesis work were obtained commercially from Sigma-Aldrich Corporation (St. Louis, MO, USA) and used without any further purification.
(§2) AChE and BChE inhibitory activities of the compounds were determined by Ellman’s assay with minor modifications. […] After a pre-incubation of 15 min at room temperature, 10 µL of 0.50 mM DTNB was added into each well, followed by 10 µL of 0.71 mM acetylthiocholine iodide as the substrate. […] Each test was carried out in triplicate and the results were expressed as an average value. The percentage of inhibition was calculated using the following formula: (1) Percentage of inhibition=S blank -S sample/S blank × 100% where S blank is slope of the blank reaction (without compounds or a reference standard) and S sample is the slope of the sample reaction (with compounds or a reference drug).
(§3) The results of the cholinesterase inhibitory assay were expressed as means ± SD, and were labeled if p < 0.05 using ANOVA of IBM SPSS Statistics for Windows, Version 23.0 (IBM, New York, NY, USA).

[2] = molecular target: T2, equine serum butyrylcholinesterase (BChE, EC 3.1.1.8) (Equus caballus, UniProt P81908); assay: biochemical; assay type: biochemical; details: for BChE inhibition effect (in words): 2a, 2r: up to a concentration of 1000 µM
T2 construct: purchased Sigma-Aldrich (St. Louis, MO, USA); host or cells: equine serum
Source text: as §1, §2, §3

[3] = Ellman's assay, pH 8, 15 min pre-incubation, acetylthiocholine iodide substrate, mean ± SD, triplicate, read-out: AChE IC50
[4] = Ellman's assay, pH 8, 15 min pre-incubation, butyrylthiocholine chloride substrate, mean ± SD, triplicate, read-out: BChE IC50

T1 sequence (O42275 24-633): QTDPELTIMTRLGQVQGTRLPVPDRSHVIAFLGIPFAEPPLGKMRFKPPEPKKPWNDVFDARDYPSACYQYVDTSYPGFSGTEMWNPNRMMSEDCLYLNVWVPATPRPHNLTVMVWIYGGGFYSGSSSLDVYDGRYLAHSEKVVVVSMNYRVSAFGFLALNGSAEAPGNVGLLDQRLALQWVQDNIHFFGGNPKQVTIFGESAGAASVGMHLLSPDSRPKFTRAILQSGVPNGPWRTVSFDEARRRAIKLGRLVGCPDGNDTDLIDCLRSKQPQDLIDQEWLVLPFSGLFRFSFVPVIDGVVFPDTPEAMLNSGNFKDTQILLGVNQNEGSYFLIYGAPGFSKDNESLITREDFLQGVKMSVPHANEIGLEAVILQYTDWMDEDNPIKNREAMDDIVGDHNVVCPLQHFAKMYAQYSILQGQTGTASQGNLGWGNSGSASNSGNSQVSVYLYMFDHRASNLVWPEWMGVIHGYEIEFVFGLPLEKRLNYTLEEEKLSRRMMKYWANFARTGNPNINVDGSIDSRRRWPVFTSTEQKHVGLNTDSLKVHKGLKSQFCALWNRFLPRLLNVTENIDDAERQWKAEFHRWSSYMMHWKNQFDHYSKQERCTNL
T2 sequence (P81908 whole entry): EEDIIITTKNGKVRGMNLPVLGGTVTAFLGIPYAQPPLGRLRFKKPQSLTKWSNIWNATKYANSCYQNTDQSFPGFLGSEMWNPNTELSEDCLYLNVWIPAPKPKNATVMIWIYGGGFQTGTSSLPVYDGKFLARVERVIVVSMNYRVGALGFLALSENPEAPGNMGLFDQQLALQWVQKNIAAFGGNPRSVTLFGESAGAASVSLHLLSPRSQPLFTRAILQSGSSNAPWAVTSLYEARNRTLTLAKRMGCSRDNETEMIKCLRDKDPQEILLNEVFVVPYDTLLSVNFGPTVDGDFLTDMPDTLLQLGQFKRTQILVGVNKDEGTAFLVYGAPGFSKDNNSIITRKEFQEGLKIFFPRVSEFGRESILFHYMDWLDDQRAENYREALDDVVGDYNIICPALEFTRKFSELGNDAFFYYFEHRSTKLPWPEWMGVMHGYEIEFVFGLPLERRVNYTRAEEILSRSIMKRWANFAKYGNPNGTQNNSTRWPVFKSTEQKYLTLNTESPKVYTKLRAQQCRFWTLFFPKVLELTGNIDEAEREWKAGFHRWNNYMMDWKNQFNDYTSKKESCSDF

Compound	AChE inhibition effect (in words) [1]	IC50 [1, 3]	BChE inhibition effect (in words) [2]	IC50 [2, 4]	IC50 [1]	IC50 [2]
O=C(OCC(=O)C12CC3CC(CC(C3)C1)C2)c1ccccc1 [Compound 2a, 2-(Adamantan-1-yl)-2-oxoethyl benzoate]	low inhibition effects	994 ± 19.4 µM	low inhibition effects	> 1500 µM	–	–
O=C(OCC(=O)C12CC3CC(CC(C3)C1)C2)c1ccccc1Cl [Compound 2b, 2-(Adamantan-1-yl)-2-oxoethyl 2-chlorobenzoate]	–	361 ± 30 µM	–	> 1500 µM	–	–
O=C(OCC(=O)C12CC3CC(CC(C3)C1)C2)c1cccc(Cl)c1 [Compound 2c, 2-(Adamantan-1-yl)-2-oxoethyl 3-chlorobenzoate]	–	280 ± 17.4 µM	–	971 ± 62.5 µM	–	–
O=C(OCC(=O)C12CC3CC(CC(C3)C1)C2)c1ccc(Cl)cc1 [Compound 2d, 2-(Adamantan-1-yl)-2-oxoethyl 4-chlorobenzoate]	–	341 ± 34.7 µM	–	1290 ± 30.1 µM	–	–
O=C(OCC(=O)C12CC3CC(CC(C3)C1)C2)c1ccc(Cl)cc1Cl [Compound 2e, 2-(Adamantan-1-yl)-2-oxoethyl 2,4-dichlorobenzoate]	–	77.1 ± 7.86 µM	–	307 ± 25.1 µM	–	–
Cc1ccccc1C(=O)OCC(=O)C12CC3CC(CC(C3)C1)C2 [Compound 2f, 2-(Adamantan-1-yl)-2-oxoethyl 2-methylbenzoate]	–	175 ± 25.9 µM	–	> 1500 µM	–	–
Cc1cccc(C(=O)OCC(=O)C23CC4CC(CC(C4)C2)C3)c1 [Compound 2g, 2-(Adamantan-1-yl)-2-oxoethyl 3-methylbenzoate]	–	191 ± 14.4 µM	–	> 1500 µM	–	–
Cc1ccc(C(=O)OCC(=O)C23CC4CC(CC(C4)C2)C3)cc1 [Compound 2h, 2-(Adamantan-1-yl)-2-oxoethyl 4-methylbenzoate]	–	> 1500 µM	–	> 1500 µM	–	–
COc1ccccc1C(=O)OCC(=O)C12CC3CC(CC(C3)C1)C2 [Compound 2i, 2-(Adamantan-1-yl)-2-oxoethyl 2-methoxybenzoate]	–	> 1500 µM	–	> 1500 µM	–	–
COc1cccc(C(=O)OCC(=O)C23CC4CC(CC(C4)C2)C3)c1 [Compound 2j, 2-(Adamantan-1-yl)-2-oxoethyl 3-methoxybenzoate]	–	166 ± 19.6 µM	–	223 ± 17.6 µM	–	–
COc1ccc(C(=O)OCC(=O)C23CC4CC(CC(C4)C2)C3)cc1 [Compound 2k, 2-(Adamantan-1-yl)-2-oxoethyl 4-methoxybenzoate]	–	> 1500 µM	–	> 1500 µM	–	–
O=C(OCC(=O)C12CC3CC(CC(C3)C1)C2)c1ccccc1[N+](=O)[O-] [Compound 2l, 2-(Adamantan-1-yl)-2-oxoethyl 2-nitrobenzoate]	–	689 ± 44.5 µM	–	> 1500 µM	–	–
O=C(OCC(=O)C12CC3CC(CC(C3)C1)C2)c1cccc([N+](=O)[O-])c1 [Compound 2m, 2-(Adamantan-1-yl)-2-oxoethyl 3-nitrobenzoate]	–	233 ± 25.9 µM	–	> 1500 µM	–	–
O=C(OCC(=O)C12CC3CC(CC(C3)C1)C2)c1ccc([N+](=O)[O-])cc1 [Compound 2n, 2-(Adamantan-1-yl)-2-oxoethyl 4-nitrobenzoate]	–	349 ± 25.2 µM	–	777 ± 33.6 µM	–	–
Nc1ccccc1C(=O)OCC(=O)C12CC3CC(CC(C3)C1)C2 [Compound 2o, 2-(adamantan-1-yl)-2-oxoethyl 2-aminobenzoate]	inactive	–	inactive	–	> 1500 µM	> 1500 µM
Nc1cccc(C(=O)OCC(=O)C23CC4CC(CC(C4)C2)C3)c1 [Compound 2p, 2-(adamantan-1-yl)-2-oxoethyl 3-aminobenzoate]	inactive	> 1500 µM	inactive	> 1500 µM	–	–
Nc1ccc(C(=O)OCC(=O)C23CC4CC(CC(C4)C2)C3)cc1 [Compound 2q, 2-(adamantan-1-yl)-2-oxoethyl 4-aminobenzoate]	inactive	> 1500 µM	inactive	> 1500 µM	–	–
O=C(OCC(=O)C12CC3CC(CC(C3)C1)C2)c1ccccn1 [Compound 2r, 2-(Adamantan-1-yl)-2-oxoethyl picolinate]	low inhibition effects	> 1500 µM	low inhibition effects	> 1500 µM	–	–
